# Test results from publication PMC5218480 (PLoS ONE, 2017).
# Test system: MV-4-11 cells
# Assay: Gene expression microarray analysis (Affymetrix PrimeView) and GSEA
# Assay type: cell-based, human
# Parameters: RFU PODN (11730768_x_at) / Fold change /veh PODN (11730768_x_at) / RFU LINC00158 (11744669_a_at) / Fold change /veh LINC00158 (11744669_a_at) / RFU DUSP10 (11751237_a_at) / Fold change /veh DUSP10 (11751237_a_at) / RFU ID3 (11757404_x_at) / Fold change /veh ID3 (11757404_x_at) / RFU PLEKHG5 (11737974_s_at) / Fold change /veh PLEKHG5 (11737974_s_at) / RFU LRRC4B (11730491_at) / Fold change /veh LRRC4B (11730491_at) / RFU GIMAP4 (11747438_a_at) / Fold change /veh GIMAP4 (11747438_a_at) / RFU KRT8 (11758183_x_at) / Fold change /veh KRT8 (11758183_x_at) / RFU CNN1 (11734310_a_at) / Fold change /veh CNN1 (11734310_a_at) / RFU VPS37D (11726825_at) / Fold change /veh VPS37D (11726825_at) / RFU C10orf10 (11716522_x_at) / Fold change /veh C10orf10 (11716522_x_at) / RFU KIR2DL2 /// KIR2DL4 /// KIR2DL5A /// KIR2DL5B /// KIR2DS1 /// KIR2DS2 /// KIR2DS3 /// KIR2DS4 /// KIR3DL3 /// KIR3DL3 /// KIR3DS1 (11738374_at) / Fold change /veh KIR2DL2 /// KIR2DL4 /// KIR2DL5A /// KIR2DL5B /// KIR2DS1 /// KIR2DS2 /// KIR2DS3 /// KIR2DS4 /// KIR3DL3 /// KIR3DL3 /// KIR3DS1 (11738374_at) / RFU C1QL1 (11718748_at) / Fold change /veh C1QL1 (11718748_at) / RFU TMPRSS4 (11747572_a_at) / Fold change /veh TMPRSS4 (11747572_a_at) / RFU HAMP (11756126_x_at) / Fold change /veh HAMP (11756126_x_at) / RFU RNFT2 (11725882_a_at) / Fold change /veh RNFT2 (11725882_a_at) / RFU NR4A2 (11747474_a_at) / Fold change /veh NR4A2 (11747474_a_at) / RFU ABCC12 (11746883_a_at) / Fold change /veh ABCC12 (11746883_a_at) / RFU TMEM136 (11760407_x_at) / Fold change /veh TMEM136 (11760407_x_at) / RFU CLDN22 /// WWC2 (11732394_at) / Fold change /veh CLDN22 /// WWC2 (11732394_at) / RFU HLA-DPB1 (11760878_x_at) / Fold change /veh HLA-DPB1 (11760878_x_at) / RFU SPINT1 (11716480_a_at) / Fold change /veh SPINT1 (11716480_a_at) / RFU GAP43 (11754022_s_at) / Fold change /veh GAP43 (11754022_s_at) / RFU A4GNT (11735810_at) / Fold change /veh A4GNT (11735810_at) / RFU PRB3 (11715151_x_at) / Fold change /veh PRB3 (11715151_x_at) / RFU TUBB4B (11761932_at) / Fold change /veh TUBB4B (11761932_at) / RFU CAPN14 (11732068_a_at) / Fold change /veh CAPN14 (11732068_a_at) / RFU TMCC2 (11721928_a_at) / Fold change /veh TMCC2 (11721928_a_at) / RFU IRGQ (11745062_a_at) / Fold change /veh IRGQ (11745062_a_at) / RFU FAM174B (11720279_a_at) / Fold change /veh FAM174B (11720279_a_at) / RFU TMPRSS4 (11748680_a_at) / Fold change /veh TMPRSS4 (11748680_a_at) / RFU FAM212B (11763350_a_at) / Fold change /veh FAM212B (11763350_a_at) / RFU PLEKHG5 (11743358_a_at) / Fold change /veh PLEKHG5 (11743358_a_at) / RFU ZSCAN30 (11745921_a_at) / Fold change /veh ZSCAN30 (11745921_a_at) / RFU CMKLR1 (11741424_a_at) / Fold change /veh CMKLR1 (11741424_a_at) / RFU LOC101060620 /// MAPK8IP1 (11723275_at) / Fold change /veh LOC101060620 /// MAPK8IP1 (11723275_at) / RFU SPTSSB (11747773_x_at) / Fold change /veh SPTSSB (11747773_x_at) / RFU PRSS12 (11739890_at) / Fold change /veh PRSS12 (11739890_at) / RFU BIN1 (11741810_x_at) / Fold change /veh BIN1 (11741810_x_at) / RFU WNT11 (11732464_a_at) / Fold change /veh WNT11 (11732464_a_at) / RFU C10orf10 (11716521_a_at) / Fold change /veh C10orf10 (11716521_a_at) / RFU C5orf56 (11738089_at) / Fold change /veh C5orf56 (11738089_at) / RFU CYB561 (11721691_x_at) / Fold change /veh CYB561 (11721691_x_at) / RFU ANKRD19P (11752326_a_at) / Fold change /veh ANKRD19P (11752326_a_at) / RFU OR2T12 /// OR2T33 /// OR2T8 (11738714_s_at) / Fold change /veh OR2T12 /// OR2T33 /// OR2T8 (11738714_s_at) / RFU VCAN (11748164_a_at) / Fold change /veh VCAN (11748164_a_at) / RFU JSRP1 (11732532_at) / Fold change /veh JSRP1 (11732532_at) / RFU KRTAP10-11 (11738290_x_at) / Fold change /veh KRTAP10-11 (11738290_x_at) / RFU MYO3A (11730013_a_at) / Fold change /veh MYO3A (11730013_a_at) / RFU EBF3 (11725865_a_at) / Fold change /veh EBF3 (11725865_a_at) / RFU CAMK2N1 (11719241_x_at) / Fold change /veh CAMK2N1 (11719241_x_at) / RFU C5orf56 (11738088_a_at) / Fold change /veh C5orf56 (11738088_a_at) / RFU OLFML3 (11715873_a_at) / Fold change /veh OLFML3 (11715873_a_at) / RFU LOC100653217 /// NTM (11731650_a_at) / Fold change /veh LOC100653217 /// NTM (11731650_a_at) / RFU MAPK11 (11762145_a_at) / Fold change /veh MAPK11 (11762145_a_at) / RFU FIZ1 (11724087_x_at) / Fold change /veh FIZ1 (11724087_x_at) / RFU OASL (11726364_x_at) / Fold change /veh OASL (11726364_x_at) / RFU SOX15 (11748057_x_at) / Fold change /veh SOX15 (11748057_x_at) / RFU CD79A (11719716_a_at) / Fold change /veh CD79A (11719716_a_at) / RFU HIST1H1D (11736915_at) / Fold change /veh HIST1H1D (11736915_at) / RFU CASKIN2 (11723855_a_at) / Fold change /veh CASKIN2 (11723855_a_at) / RFU LOC730098 (11760151_x_at) / Fold change /veh LOC730098 (11760151_x_at) / RFU OR4N2 (11742367_at) / Fold change /veh OR4N2 (11742367_at) / RFU PRRT2 (11749266_a_at) / Fold change /veh PRRT2 (11749266_a_at) / RFU SNX32 (11753110_a_at) / Fold change /veh SNX32 (11753110_a_at) / RFU CDHR5 (11726645_a_at) / Fold change /veh CDHR5 (11726645_a_at) / RFU RCAN1 (11760418_a_at) / Fold change /veh RCAN1 (11760418_a_at) / RFU FAM167A (11723789_a_at) / Fold change /veh FAM167A (11723789_a_at) / RFU FAM26E (11764081_at) / Fold change /veh FAM26E (11764081_at) / RFU ISYNA1 (11749810_s_at) / Fold change /veh ISYNA1 (11749810_s_at) / RFU ACY1 (11761880_at) / Fold change /veh ACY1 (11761880_at) / RFU 11764098_at / Fold change /veh 11764098_at / RFU SAMD14 (11745864_x_at) / Fold change /veh SAMD14 (11745864_x_at) / RFU NPB (11741838_a_at) / Fold change /veh NPB (11741838_a_at) / RFU TMPRSS6 (11731388_a_at) / Fold change /veh TMPRSS6 (11731388_a_at) / RFU KRTAP10-2 (11738614_at) / Fold change /veh KRTAP10-2 (11738614_at) / RFU ARHGAP8 /// PRR5-ARHGAP8 (11727945_x_at) / Fold change /veh ARHGAP8 /// PRR5-ARHGAP8 (11727945_x_at) / RFU KRTAP5-7 /// NADSYN1 (11734609_at) / Fold change /veh KRTAP5-7 /// NADSYN1 (11734609_at) / RFU RASL12 (11751679_a_at) / Fold change /veh RASL12 (11751679_a_at) / RFU CDKN2B (11736163_a_at) / Fold change /veh CDKN2B (11736163_a_at) / RFU PRF1 (11729649_at) / Fold change /veh PRF1 (11729649_at) / RFU, ZNF638 /// ZNF638-IT1 / Fold change vs veh, ZNF638 /// ZNF638-IT1 / RFU, PANK3 / Fold change vs veh, PANK3 / RFU, SH3YL1 / Fold change vs veh, SH3YL1 / RFU, ZEB2 / Fold change vs veh, ZEB2 / RFU, NRIP1 / Fold change vs veh, NRIP1 / RFU, PTTG1IP / Fold change vs veh, PTTG1IP / RFU, CAPN2 / Fold change vs veh, CAPN2 / RFU, MED14 / Fold change vs veh, MED14 / RFU, SNORA58 / Fold change vs veh, SNORA58 / RFU, C1orf63 / Fold change vs veh, C1orf63 / RFU, LRRFIP1 / Fold change vs veh, LRRFIP1 / RFU, NDUFAF7 / Fold change vs veh, NDUFAF7 / RFU, SLC12A2 / Fold change vs veh, SLC12A2 / RFU, IBTK / Fold change vs veh, IBTK / RFU, ESF1 / Fold change vs veh, ESF1 / Fold change vs veh, TMEM50B / RFU, TAOK1 / Fold change vs veh, TAOK1 / RFU, ACBD3 / Fold change vs veh, ACBD3 / RFU, TMA16 / Fold change vs veh, TMA16 / RFU, RWDD3 / Fold change vs veh, RWDD3 / RFU, BCAT1 / Fold change vs veh, BCAT1 / RFU, EDEM3 / Fold change vs veh, EDEM3 / RFU, TMEM33 / Fold change vs veh, TMEM33 / RFU, WDR75 / Fold change vs veh, WDR75 / RFU, AHCTF1 / Fold change vs veh, AHCTF1 / RFU, TFRC / Fold change vs veh, TFRC / RFU, ZDHHC17 / Fold change vs veh, ZDHHC17 / RFU, NOM1 / Fold change vs veh, NOM1 / RFU, ARL8B / Fold change vs veh, ARL8B / RFU, ZBTB11 / Fold change vs veh, ZBTB11 / RFU, TAMM41 / Fold change vs veh, TAMM41 / RFU, KIAA1704 /// LOC100996395 / Fold change vs veh, KIAA1704 /// LOC100996395 / RFU, ING1 / Fold change vs veh, ING1 / RFU, TRMT61B / Fold change vs veh, TRMT61B / RFU, FUBP3 / Fold change vs veh, FUBP3 / RFU, TP53 / Fold change vs veh, TP53 / RFU, TNKS2 / Fold change vs veh, TNKS2 / RFU, ZFP14 / Fold change vs veh, ZFP14 / RFU, ACTR2 / Fold change vs veh, ACTR2 / RFU, PPP3R1 / Fold change vs veh, PPP3R1 / RFU, PIK3R1 / Fold change vs veh, PIK3R1 / RFU, HNRNPA1 / Fold change vs veh, HNRNPA1 / RFU, RNF170 / Fold change vs veh, RNF170 / RFU, ZNF28 / Fold change vs veh, ZNF28 / RFU, RNGTT / Fold change vs veh, RNGTT / RFU, OGT / Fold change vs veh, OGT / RFU, BRD1 / Fold change vs veh, BRD1 / RFU, MARS / Fold change vs veh, MARS / RFU, ZNF655 / Fold change vs veh, ZNF655 / RFU, FAHD1 / Fold change vs veh, FAHD1 / RFU, BDP1 / Fold change vs veh, BDP1 / RFU, LRRCC1 / Fold change vs veh, LRRCC1 / RFU, ARID1A / Fold change vs veh, ARID1A / RFU, ZNF146 / Fold change vs veh, ZNF146 / RFU, ZNF330 / Fold change vs veh, ZNF330 / RFU, GPN3 / Fold change vs veh, GPN3 / RFU, C9orf123 / Fold change vs veh, C9orf123 / RFU, N4BP2L2 / Fold change vs veh, N4BP2L2 / RFU, ARFIP1 / Fold change vs veh, ARFIP1 / RFU, FAM179B / Fold change vs veh, FAM179B / RFU, BCL10 / Fold change vs veh, BCL10 / RFU, UHRF1BP1L / Fold change vs veh, UHRF1BP1L / RFU, BET1 / Fold change vs veh, BET1 / RFU, CNOT2 / Fold change vs veh, CNOT2 / RFU, ZNF268 / Fold change vs veh, ZNF268 / Fold change vs veh, ZNF507 / RFU, DGCR2 / Fold change vs veh, DGCR2 / RFU, WDSUB1 / Fold change vs veh, WDSUB1 / Fold change vs veh, HSP90B1 /// MIR3652 / RFU, ADSS / Fold change vs veh, ADSS / RFU, GK / Fold change vs veh, GK / RFU, ZNF148 / Fold change vs veh, ZNF148 / RFU, TAF9 / Fold change vs veh, TAF9 / RFU, SLC1A5 / Fold change vs veh, SLC1A5 / RFU, SLMO2 / Fold change vs veh, SLMO2 / RFU, ABCC4 / Fold change vs veh, ABCC4 / RFU, LOC101060439 /// RAP1B / Fold change vs veh, LOC101060439 /// RAP1B / RFU, RFX7 / Fold change vs veh, RFX7 / RFU, GTPBP10 / Fold change vs veh, GTPBP10 / RFU, CNEP1R1 / Fold change vs veh, CNEP1R1 / RFU, BIVM-ERCC5 /// ERCC5 / Fold change vs veh, BIVM-ERCC5 /// ERCC5 / RFU, ILF3 / Fold change vs veh, ILF3 / RFU 11762660_at / Fold change /veh 11762660_at / RFU VCAN (11757783_s_at) / Fold change /veh VCAN (11757783_s_at) / RFU DDX43 (11728927_at) / Fold change /veh DDX43 (11728927_at) / RFU KRT8 (11758188_x_at) / Fold change /veh KRT8 (11758188_x_at) / RFU NKD1 (11759106_at) / Fold change /veh NKD1 (11759106_at) / RFU SRD5A1 (11742802_a_at) / Fold change /veh SRD5A1 (11742802_a_at) / RFU TPSAB1 /// TPSB2 (11721975_s_at) / Fold change /veh TPSAB1 /// TPSB2 (11721975_s_at) / RFU GSTM3 (11746129_a_at) / Fold change /veh GSTM3 (11746129_a_at) / RFU IL23R (11737362_x_at) / Fold change /veh IL23R (11737362_x_at) / RFU TMEM51 (11727254_a_at) / Fold change /veh TMEM51 (11727254_a_at) / RFU PIWIL2 (11732686_x_at) / Fold change /veh PIWIL2 (11732686_x_at) / RFU ORM1 (11744905_x_at) / Fold change /veh ORM1 (11744905_x_at) / RFU CCDC152 (11743942_at) / Fold change /veh CCDC152 (11743942_at) / RFU ECM1 (11717891_a_at) / Fold change /veh ECM1 (11717891_a_at) / RFU IL23R (11748794_a_at) / Fold change /veh IL23R (11748794_a_at) / RFU TNFAIP8L3 (11732012_x_at) / Fold change /veh TNFAIP8L3 (11732012_x_at) / RFU MBOAT4 (11741988_at) / Fold change /veh MBOAT4 (11741988_at) / RFU 11764193_at / Fold change /veh 11764193_at / RFU TMEM53 (11763286_at) / Fold change /veh TMEM53 (11763286_at) / RFU MAGEB2 (11727129_at) / Fold change /veh MAGEB2 (11727129_at) / RFU TMEM200A (11744735_a_at) / Fold change /veh TMEM200A (11744735_a_at) / RFU CCDC152 (11751479_a_at) / Fold change /veh CCDC152 (11751479_a_at) / RFU FAM211A (11726209_a_at) / Fold change /veh FAM211A (11726209_a_at) / RFU RGS16 (11746705_a_at) / Fold change /veh RGS16 (11746705_a_at) / RFU VCAN (11755009_s_at) / Fold change /veh VCAN (11755009_s_at) / RFU RHOB (11743442_s_at) / Fold change /veh RHOB (11743442_s_at) / RFU RGS16 (11720943_a_at) / Fold change /veh RGS16 (11720943_a_at) / RFU RGS16 (11720944_at) / Fold change /veh RGS16 (11720944_at) / RFU, VPS4B / Fold change vs veh, VPS4B / RFU, CREB1 / Fold change vs veh, CREB1 / RFU, DNAJC13 / Fold change vs veh, DNAJC13 / RFU, GNAQ / Fold change vs veh, GNAQ / RFU, CDK5R1 / Fold change vs veh, CDK5R1 / RFU, ZRANB3 / Fold change vs veh, ZRANB3 / RFU, CUL4A / Fold change vs veh, CUL4A / RFU, CCNY / Fold change vs veh, CCNY / RFU, UFL1 / Fold change vs veh, UFL1 / RFU, COG3 / Fold change vs veh, COG3 / RFU, DIAPH2 / Fold change vs veh, DIAPH2 / RFU, SKA2 / Fold change vs veh, SKA2 / RFU, AFF3 / Fold change vs veh, AFF3 / RFU, LMF1 / Fold change vs veh, LMF1 / RFU, IPO11 / Fold change vs veh, IPO11 / RFU, DFFB / Fold change vs veh, DFFB / RFU, FOXP1 / Fold change vs veh, FOXP1 / RFU, CARD8 / Fold change vs veh, CARD8 / RFU, STRN3 / Fold change vs veh, STRN3 / RFU, ADK / Fold change vs veh, ADK / RFU, RASSF2 / Fold change vs veh, RASSF2 / RFU, WIPF1 / Fold change vs veh, WIPF1 / RFU, LARP1B / Fold change vs veh, LARP1B / RFU, RASA1 / Fold change vs veh, RASA1 / RFU, RB1 / Fold change vs veh, RB1 / RFU, PPFIA1 / Fold change vs veh, PPFIA1 / RFU, MAT2A / Fold change vs veh, MAT2A / RFU, CCT5 / Fold change vs veh, CCT5 / RFU, WDR92 / Fold change vs veh, WDR92 / RFU, CUX1 / Fold change vs veh, CUX1 / RFU, TTC7A / Fold change vs veh, TTC7A / RFU, TMEM135 / Fold change vs veh, TMEM135 / RFU, DEPTOR / Fold change vs veh, DEPTOR / RFU, CPM / Fold change vs veh, CPM / RFU, DNAJB6 / Fold change vs veh, DNAJB6 / RFU, CACNA2D3 / Fold change vs veh, CACNA2D3 / RFU, DTX4 / Fold change vs veh, DTX4 / RFU, TFCP2 / Fold change vs veh, TFCP2 / RFU, GMCL1 /// GMCL1P1 / Fold change vs veh, GMCL1 /// GMCL1P1 / RFU, AEBP2 / Fold change vs veh, AEBP2 / RFU, SNHG1 /// SNORD22 /// SNORD25 /// SNORD26 /// SNORD27 /// SNORD28 /// SNORD29 /// SNORD31 / Fold change vs veh, SNHG1 /// SNORD22 /// SNORD25 /// SNORD26 /// SNORD27 /// SNORD28 /// SNORD29 /// SNORD31 / Fold change (Aza/veh), C12orf56 (ProbeSet 11735607_a_at) / Fold change (ACY-1035/veh), C12orf56 (ProbeSet 11735607_a_at) / Fold change (Aza/veh), FGFR1OP (ProbeSet 11751329_s_at) / Fold change (ACY-1035/veh), FGFR1OP (ProbeSet 11751329_s_at) / Fold change (Aza/veh), VPS36 (ProbeSet 11739960_a_at) / Fold change (ACY-1035/veh), VPS36 (ProbeSet 11739960_a_at) / RFU SYPL1 (11715823_x_at) / Fold change /veh SYPL1 (11715823_x_at) / RFU IGFBP7 (11715501_s_at) / Fold change /veh IGFBP7 (11715501_s_at) / RFU REEP3 (11722064_at) / Fold change /veh REEP3 (11722064_at) / RFU IGLL1 (11728026_x_at) / Fold change /veh IGLL1 (11728026_x_at): dose or concentration left out as unconfirmed
# Conditions: ProbeSet 11725141_a_at; LIST B
smiles,measurement,value
Nc1ncn([C@@H]2O[C@H](CO)[C@@H](O)[C@H]2O)c(=O)n1 [azacitidine],"RFU, FUBP3",470.91 RFU
